The target in test [1] is T1, Ubiquitin carboxy-terminal hydrolase L1 (UCHL1) (Homo sapiens, UniProt P09936).
T1 construct: recombinant UCHL1
T1 sequence (P09936 1-220): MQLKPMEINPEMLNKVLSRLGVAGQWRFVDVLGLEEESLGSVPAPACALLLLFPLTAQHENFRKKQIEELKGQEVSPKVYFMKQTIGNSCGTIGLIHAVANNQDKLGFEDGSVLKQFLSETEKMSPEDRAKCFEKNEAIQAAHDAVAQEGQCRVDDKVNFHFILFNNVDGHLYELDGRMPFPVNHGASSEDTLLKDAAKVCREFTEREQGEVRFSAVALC
Briefly: fluorescence polarization assay with Ub-Lys-TAMRA, […] min preincubation; covalent adduct by LC-ESI-MS; ABPP pulldown. Type of test: biochemical.

A further test addresses ALDH9A1 (Homo sapiens, UniProt P49189). Kind of test: ABPP in HEK293 cells: streptavidin pulldown immunoblot and LFQ chemical proteomics. It counts as cell-based.
In test [2] the target is T2, ALDH2 (Homo sapiens, UniProt P05091).
T2 sequence (P05091 18-517): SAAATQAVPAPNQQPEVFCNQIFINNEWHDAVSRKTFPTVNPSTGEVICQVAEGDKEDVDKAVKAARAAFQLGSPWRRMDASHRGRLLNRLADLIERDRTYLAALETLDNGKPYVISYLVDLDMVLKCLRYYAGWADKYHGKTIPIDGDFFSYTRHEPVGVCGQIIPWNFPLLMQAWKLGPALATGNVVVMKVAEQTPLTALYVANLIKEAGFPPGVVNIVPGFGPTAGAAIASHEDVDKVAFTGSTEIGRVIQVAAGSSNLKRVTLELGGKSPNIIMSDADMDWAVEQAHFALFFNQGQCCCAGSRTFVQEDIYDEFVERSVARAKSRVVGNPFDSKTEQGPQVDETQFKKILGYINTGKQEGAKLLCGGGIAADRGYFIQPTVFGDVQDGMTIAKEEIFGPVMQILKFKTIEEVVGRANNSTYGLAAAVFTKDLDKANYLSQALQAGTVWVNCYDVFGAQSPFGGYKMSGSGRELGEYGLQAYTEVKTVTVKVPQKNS
Briefly: ABPP in HEK293 cells, LFQ chemical proteomics, competed by MT16-001. Type of test: cell-based.

In another test the target is T3, USP30 (Homo sapiens, UniProt Q70CQ3).
T3 sequence (Q70CQ3 1-517): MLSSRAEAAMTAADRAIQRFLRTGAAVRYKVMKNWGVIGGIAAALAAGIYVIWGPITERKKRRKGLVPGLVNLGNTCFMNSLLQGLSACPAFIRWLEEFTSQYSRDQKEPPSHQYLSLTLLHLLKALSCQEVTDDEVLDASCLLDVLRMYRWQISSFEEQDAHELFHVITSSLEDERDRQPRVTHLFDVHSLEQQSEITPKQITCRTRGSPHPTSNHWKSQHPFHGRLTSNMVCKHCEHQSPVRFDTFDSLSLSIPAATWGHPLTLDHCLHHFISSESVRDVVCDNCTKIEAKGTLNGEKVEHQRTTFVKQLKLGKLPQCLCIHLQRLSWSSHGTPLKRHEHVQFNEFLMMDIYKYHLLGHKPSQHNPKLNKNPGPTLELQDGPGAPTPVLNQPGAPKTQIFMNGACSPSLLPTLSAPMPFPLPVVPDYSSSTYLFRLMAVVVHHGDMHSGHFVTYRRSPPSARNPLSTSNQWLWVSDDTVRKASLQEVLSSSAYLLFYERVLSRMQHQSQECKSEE
Briefly: DUB selectivity panel at […] (FP / FI in vitro assays). It counts as biochemical.

The target of test [3] is T1, Ubiquitin carboxy-terminal hydrolase L1 (UCHL1). Briefly: fluorescence polarization assay with Ub-Lys-TAMRA, […] min preincubation; covalent adduct by LC-ESI-MS; cellular HTRF. It counts as biochemical. Background: Fluorescence polarisation rises when a labelled molecule tumbles more slowly, as on binding a larger partner.
Test [4] addresses T2, ALDH2. Kind of test: competitive ABPP against MT16-205 in HEK293 cells (LFQ proteomics). Type of test: cell-based.

One may read the IC50 as the concentration that gives 50% inhibition. Higher therefore signals a need for much substance. A word on the inhibition: it is the relative decrease from the control value, in per cent.

ALDH9A1, sequence (P49189 whole entry): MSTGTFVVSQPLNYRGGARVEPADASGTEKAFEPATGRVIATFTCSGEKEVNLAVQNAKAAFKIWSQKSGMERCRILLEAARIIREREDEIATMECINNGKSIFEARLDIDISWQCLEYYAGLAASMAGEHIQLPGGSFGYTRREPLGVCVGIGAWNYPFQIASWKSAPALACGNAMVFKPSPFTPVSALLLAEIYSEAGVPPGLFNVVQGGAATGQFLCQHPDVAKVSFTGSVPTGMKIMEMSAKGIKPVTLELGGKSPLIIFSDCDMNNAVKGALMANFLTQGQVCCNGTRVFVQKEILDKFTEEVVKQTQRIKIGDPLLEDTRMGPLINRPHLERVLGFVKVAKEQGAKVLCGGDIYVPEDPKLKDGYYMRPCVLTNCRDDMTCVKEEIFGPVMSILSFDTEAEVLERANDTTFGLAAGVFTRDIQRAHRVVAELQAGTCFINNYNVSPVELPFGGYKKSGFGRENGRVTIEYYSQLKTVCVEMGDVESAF

Molecule `C#Cc1ccc(-c2cnc(NC(=O)[C@H]3CCN(C#N)C3)s2)cc1` [MT16-205] registered an IC50 in test [1] of 600 ± 78 nM. The “ABPP in HEK293 cells: streptavidin pulldown immunoblot and LFQ chemical proteomi” value at ALDH9A1 is “also ALDH9A1, which was one of the off-targets of MT16-205 in HEK293 cells”. In addition, the “ABPP in HEK293 cells, LFQ chemical proteomics, competed by MT16-001” value at ALDH2 [2] is “ALDH2, ALDH9A1, and GATD3A were confirmed as the genuine targets of MT16-001, MT16-205 and MT16-009”.
As for `N#CN1CC[C@H](C(=O)Nc2nc(-c3ccccc3)cs2)C1` [MT16-009], at 1 µM the inhibition against USP30 was 50%.
In test [3], `N#CN1CC[C@H](C(=O)Nc2ncc(-c3ccccc3)s2)C1` [MT16-001] came in with a 50% inhibitory concentration (IC50) of 580 ± 25 nM. On ALDH2 [4], the “competitive ABPP against MT16-205 in HEK293 cells (LFQ proteomics)” value is “Four targets, ALDH2, ALDH9A1, GATD3A and UCHL1, responded to parent compound MT16-001 in a concentration dependent manner”.

Source of the values: paper PMC8597422, “Activity-based protein profiling reveals deubiquitinase and aldehyde dehydrogenase targets of a cyanopyrrolidine probe” (RSC Medicinal Chemistry, 2021).
